Data: US9629861B2, “Compositions and methods for treating bacterial infections using ceftaroline” (Forest Laboratories Holdings Limited, priority 2009, dated 2017)
Where two headings read alike, the source gives them in different places.

What was measured:
[1] = Example 4
Protocol: The 600-mg dose of ceftaroline fosamil infused over 60 minutes was split into two infusions in order to maintain the blind. For subjects with moderate renal impairment (30 ml/min<CrCl≦50 ml/min), as estimated by the Cockroft-Gault formula, unblinded pharmacy staff or unblinded study staff could adjust the dose of ceftaroline fosamil to two consecutive 200 mg infusions and readjust dose to two 300 mg infusions when renal function improved (CrCl>50 mL/min). The duration of treatment was between 5 to 7 days.
(§3) All subjects who received any amount of study drug were included in the safety analysis. Safety measures included monitoring for adverse events (AE) up to TOC and serious adverse events (SAE) through LFU; recording vital signs, physical examination, electrocardiogram (ECG), and clinical laboratory findings (clinical chemistry, hematology, and urinalysis), at prespecified times throughout the study.

[2] = Example 5
Protocol: The 600-mg dose of ceftaroline fosamil infused over 60 minutes was split into two infusions in order to maintain the blind. For subjects with moderate renal impairment (30 mL/min<CrCl≦50 mL/min), as estimated by the Cockroft-Gault formula, unblinded pharmacy staff or unblinded study staff could adjust the dose of ceftaroline fosamil to two consecutive 200 mg infusions and readjust dose to two 300 mg infusions when renal function improved (CrCl>50 mL/min). The duration of treatment was between 5 to 7 days.
as §3

[3] = molecular target: T1, CYP3A4 (Homo sapiens, UniProt P08684); experiment: CYP inhibition in human liver microsomes; format: in vitro ADME
T1 construct: In vitro studies in human liver microsomes; from tissue; host or cells: human liver microsomes

[4] = test system: CYP2C9; experiment: CYP induction in human hepatocytes; format: in vitro ADME
[5] = test system: CYP2C8; settings: human hepatocytes
[6] = test system: Community-Acquired Bacterial Pneumonia (CABP); experiment: Two Phase 3 studies in CABP, integrated; format: in vivo, human; settings: for Clinical Cure Rate at TOC / Treatment Difference in clinical cure rate at TOC: integrated CABP studies; for Clinical Cure Rate at TOC: after 5 to 7 days of therapy; for Treatment Difference in clinical cure rate at TOC / Weighted treatment difference (95% CI): versus ceftriaxone; for Weighted treatment difference (95% CI): combined CABP studies
Protocol: (§1) In both treatment groups of CABP Study 1, two doses of oral clarithromycin (500 mg q12h), were administered as adjunctive therapy starting on Study Day 1. No adjunctive macrolide therapy was used in CABP Study 2. Patients with new or progressive pulmonary infiltrate(s) on chest radiography and clinical signs and symptoms consistent with CABP with the need for hospitalization and IV therapy were enrolled in the studies. Treatment duration was 5 to 7 days. A switch to oral therapy was not allowed. The Modified Intent-to-Treat Efficacy (MITTE) population included all patients who received any amount of study drug according to their randomized treatment group and were in PORT (Pneumonia Outcomes Research Team) Risk Class III or IV.
The primary efficacy endpoint was the clinical response at the Test of Cure (TOC) visit in the co-primary CE and MITTE populations (Table 4). In a subgroup analysis (CE population), the comparative clinical cure rates between the ceftaroline group and the ceftriaxone group were not affected by age, gender, race, ethnicity, or weight.

[7] = test system: H. parainfluenzae; experiment: Example 4 CAP study, outcome by baseline pathogen; format: in vivo
Text: (§2) Per-pathogen clinical cure rate and favorable microbiological outcome rate at TOC in the mMITTE and ME Populations;

[8] = test system: complicated skin and skin structure infections (cSSSI); experiment: Two Phase 3 studies in cSSSI, integrated; format: in vivo, human; settings: co-primary CE and MITT populations
Protocol: A total of 1396 adults with clinically documented complicated skin and skin structure infections (cSSSI) were enrolled in two randomized, multi-center, multinational, double-blind, studies comparing 600 mg ceftaroline fosamil administered intravenously over 1 hour every 12 hours to vancomycin plus aztreonam [1 g vancomycin administered intravenously over 1 hour followed by 1 g aztreonam administered intravenously over 1 hour every 12 hours]. Patients with cSSSI (deep/extensive cellulitis, a major abscess, a wound infection [surgical or traumatic], infected insect bites, burns or ulcers, lower extremity infection in patients with diabetes mellitus or peripheral vascular disease), were enrolled in the studies. Treatment duration was 5 to 14 days. A switch to oral therapy was not allowed. The Modified Intent-to-Treat (MITT) population included all patients who received any amount of study drug according to their randomized treatment group.
The primary efficacy endpoint was clinical response at the Test of Cure (TOC) visit in the co-primary CE and MITT populations (Table 2). […] In a subgroup analysis (CE population), the comparative clinical cure rates between the ceftaroline group and the vancomycin plus aztreonam group were not affected by age, gender, race, ethnicity, or weight.

[9] = test system: S. aureus; experiment: Example 4 CAP study, outcome by baseline pathogen; format: in vivo, Staphylococcus aureus
Text: as §2

[10] = test system: S. aureus; experiment: Example 5 CAP study, outcome by baseline pathogen; format: in vivo, Staphylococcus aureus
Text: as §2

[11] = test system: Community-Acquired Bacterial Pneumonia (CABP); experiment: Phase 3 CABP Study 2 (Example 4, no adjunctive macrolide); format: in vivo, human; settings: for Clinical Cure Rate at TOC / Treatment Difference in clinical cure rate at TOC: CABP Study 2; for Difference, clinical cure rate at EOT / Difference, favorable microbiological outcome at TOC: ceftaroline minus ceftriaxone, Example 4; for Treatment Difference in clinical cure rate at TOC: versus ceftriaxone
Protocol: as §1
The primary efficacy endpoint was the clinical response at the Test of Cure (TOC) visit in the co-primary CE and MITTE populations (Table 4).
The secondary objectives of the study were to evaluate the following: clinical response at end-of-therapy (EOT); the microbiological favorable outcome rate at TOC; the overall (clinical and radiographic) success rate at TOC; the clinical and microbiological response by pathogen at TOC; clinical relapse at late follow-up (LFU); microbiological reinfection/recurrence at LFU; and safety.
The following criteria were used for evaluation: The primary efficacy outcome measures were the per-subject clinical cure rate at test-of-cure (TOC) in the CE and MITTE Populations. Subjects were considered clinically cured at TOC if they had total resolution of all signs and symptoms of the baseline infection, or improvement of the infection such that no further antimicrobial therapy was necessary.
Non-inferiority was concluded if the lower limit of the 95% CI was higher than −10%.

[12] = human, in vivo
[13] = test system: CYP2B6; experiment: CYP induction in human hepatocytes; format: in vitro ADME
[14] = test system: K. pneumoniae; experiment: Example 4 CAP study, outcome by baseline pathogen; format: in vivo, Klebsiella pneumoniae
Text: as §2

[15] = Pharmacokinetics of ceftaroline after IV infusion of ceftaroline fosamil in adults with normal renal function; design: species or system human; settings: in vivo
Text: The standard deviation is shown in brackets.

[16] = Safety population, listed as ceftaroline

T1 sequence (P08684 whole entry): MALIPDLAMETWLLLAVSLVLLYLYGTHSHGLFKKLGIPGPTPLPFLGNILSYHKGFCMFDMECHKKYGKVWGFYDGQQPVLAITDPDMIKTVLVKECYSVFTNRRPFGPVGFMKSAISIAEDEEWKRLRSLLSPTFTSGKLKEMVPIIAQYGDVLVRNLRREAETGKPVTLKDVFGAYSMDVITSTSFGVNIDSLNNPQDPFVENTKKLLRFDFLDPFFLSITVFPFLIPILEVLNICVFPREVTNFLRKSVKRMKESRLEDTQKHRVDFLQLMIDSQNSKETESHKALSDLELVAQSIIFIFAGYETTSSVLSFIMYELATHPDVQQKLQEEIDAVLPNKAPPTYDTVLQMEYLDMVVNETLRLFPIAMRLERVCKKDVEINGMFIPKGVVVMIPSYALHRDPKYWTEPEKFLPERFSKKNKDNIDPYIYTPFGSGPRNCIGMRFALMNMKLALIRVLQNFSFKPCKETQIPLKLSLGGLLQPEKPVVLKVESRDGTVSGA

SMILES: CCO/N=C(\C(=O)N[C@@H]1C(=O)N2C(C(=O)[O-])=C(Sc3nc(-c4cc[n+](C)cc4)cs3)CS[C@H]12)c1nsc(N)n1 [Ceftaroline]
- TEAEs leading to premature discontinuation from study drug administration [1]: 0.6%
- any study-drug-related TEAEs, subjects [1]: 12.4%
- study-drug-related TEAE: headache [1]: 0.6%
- Early withdrawal from study, reason Adverse Event ([1]; MITTE population): 8 (2.8) %
- Any AE (TEAE), subjects ([1]; Safety population): 169 (53.7) %
- COPD, subjects ([1]; Safety population): 8 (2.5) %
- Diarrhea, subjects ([1]; Safety population): 12 (3.8) %
- Headache, subjects ([1]; Safety population): 11 (3.5) %
- Hypertension, subjects ([1]; Safety population): 8 (2.5) %
- Hypokalemia, subjects ([1]; Safety population): 10 (3.2) %
- Insomnia, subjects ([1]; Safety population): 10 (3.2) %
- Nausea, subjects ([1]; Safety population): 6 ( 1.9) %
- Phlebitis, subjects ([1]; Safety population): 10 (3.2) %
- Pleural effusion, subjects ([1]; Safety population): 4 (1.3) %
- Pneumonia, subjects ([1]; Safety population): 8 (2.5) %
- Any AE (TEAE), subjects [1, 16]: 53.7%
- TEAEs leading to premature discontinuation from study drug administration [2]: 3.7%
- subjects with SAEs considered possibly or probably related to study drug [2]: 2 subjects
- Early withdrawal from study, reason Adverse Event ([2]; MITTE population): 5 (1.7) %
- Any AE (TEAE), subjects ([2]; Safety population): 119 (39.9) %
- Constipation, subjects ([2]; Safety population): 7 (2.3) %
- Diarrhea, subjects ([2]; Safety population): 14 (4.7) %
- Headache, subjects ([2]; Safety population): 10 (3.4) %
- Hypertension, subjects ([2]; Safety population): 6 (2.0) %
- Hypokalemia, subjects ([2]; Safety population): 4 (1.3) %
- Insomnia, subjects ([2]; Safety population): 9 (3.0) %
- Nausea, subjects ([2]; Safety population): 8 ( 2.7) %
- Phlebitis, subjects ([2]; Safety population): 7 (2.3) %
- Any AE (TEAE), subjects [2, 16]: 39.9%
- Diarrhea, subjects [2, 16]: 4.7%
- Headache, subjects [2, 16]: 3.4%
- inhibition of CYP3A4 [3]: neither ceftaroline fosamil nor ceftaroline inhibits
- induction of CYP2C9 [4]: not inducers
- induction of CYP2C8 [5]: not inducers
- Clinical Cure Rate at TOC ([6]; CE population): 387/459 (84.3) %
- Clinical Cure Rate at TOC ([6]; MITTE population): 479/580 (82.6) %
- Treatment Difference in clinical cure rate at TOC ([6]; CE): 6.7 (1.6, 11.8) %
- Treatment Difference in clinical cure rate at TOC ([6]; CE, listed as ceftaroline): 6.7%
- Weighted treatment difference (95% CI) ([6]; ME): 9.7 (0.7, 18.8) %
- Weighted treatment difference (95% CI) ([6]; ME, listed as ceftaroline): 9.7%
- Treatment Difference in clinical cure rate at TOC ([6]; MITTE): 6.0 (1.4, 10.7) %
- Weighted treatment difference (95% CI) ([6]; mMITTE): 8.7 (−0.0, 17.4) %
- Weighted treatment difference (95% CI) ([6]; mMITTE, listed as ceftaroline): 8.7%
- Favorable Microbiological Outcome at TOC by Baseline Pathogen ([7]; ME): 9/9 (100.0) %
- Clinical Cure Rate at the TOC Visit by Baseline Pathogen ([7]; ME population): 9/9 (100.0) %
- clinical response at TOC compared with vancomycin plus aztreonam [8]: non-inferior
- Favorable Microbiological Outcome at TOC by Baseline Pathogen ([9]; ME): 11/15 (73.3) %
- Clinical Cure Rate at the TOC Visit by Baseline Pathogen ([9]; ME population): 10/15 (66.7) %
- Favorable Microbiological Outcome at TOC by Baseline Pathogen ([10]; ME): 8/10 (80.0) %
- Clinical Cure Rate at the TOC Visit by Baseline Pathogen ([10]; ME population): 8/10 (80.0) %
- Clinical Cure Rate at TOC ([11]; CE population): 193 (82.1) %
- Clinical Cure Rate at TOC ([11]; MITTE population): 235 (81.3) %
- Difference, clinical cure rate at EOT ([11]; CE): 6.0%
- Difference, favorable microbiological outcome at TOC ([11]; ME): 1.8%
- Difference, clinical cure rate at EOT ([11]; MITTE): 7.4%
- Difference, favorable microbiological outcome at TOC ([11]; mMITTE): 0.4%
- Treatment Difference in clinical cure rate at TOC ([11]; CE): 4.9%
- Treatment Difference in clinical cure rate at TOC ([11]; MITTE): 5.9%
- AUC higher in female than in male subjects [12]: 6-15%
- Cmax higher in female than in male subjects [12]: 17-22%
- induction of CYP2B6 [13]: not inducers
- Favorable Microbiological Outcome at TOC by Baseline Pathogen ([14]; ME): 6/6 (100.0) %
- Clinical Cure Rate at the TOC Visit by Baseline Pathogen ([14]; ME population): 6/6 (100.0) %
- CL/Fm ([15]; human): 9.58 (1.85) L/h
- mean plasma terminal elimination half-life ([15]; human): approximately 2.5 hours
- Cmax and AUC versus dose [15]: increased approximately in proportion to increases in dose
